# Experimental data from patent US20180118682A1, “PHARMACEUTICAL COMPOSITION CONTAINING A TRYPTOPHAN DERIVATIVE” (Ramot at Tel-Aviv University Ltd., priority 2010, published 2018).
# How the values were obtained:
# [1] = system: microorganisms (e.g. bacteria and fungi); test: microbial preservation of ophthalmic formulations according to European and US pharmacopeia standards; format: cell-based; conditions: European standards (Pharmacopeia 7.0) and US-Pharmacopeia
# Text: It can be particularly difficult to preserve formulations against microorganisms (e.g. bacteria and fungi), if the formulation contains a cyclodextrin derivative.
# From different tests it can be seen that a sufficient microbial preservation of ophthalmic formulations is not possible with benzalkonium chloride, cetrimide and chlorhexidine according to the European standards (Pharmacopeia 7.0) and US standards (US-Pharmacopeia).
# [2] = equilibrium solubility in water at 20 °C with varying cyclodextrin content; format: physicochemical; conditions: thermodynamic from solid
# Protocol: For testing the influence of the cyclodextrin content in ophthalmic formulations, the solubility of Compound (A) was tested.
# [3] = aqueous solubility of compound (A) as a function of pH (UV-spectroscopy); format: physicochemical; conditions: for solubility: aqueous media, aqueous buffer, R-enantiomer used
# Protocol: At acidic conditions, the solubility of the compound (A) is higher.
# At alkaline pH-values, the solubility of the compound (A) is also better.
# The solubility of the R-enantiomer of compound (A) was determined as a function of the pH-value by using UV-spectroscopy to quantify the concentration of the compound in a series of aqueous media.
# [4] = equilibrium solubility in citrate buffer saline pH6 with cyclodextrins (shake flask method); format: physicochemical; conditions: citrate buffer saline with cyclodextrin, pH 6, aqueous with cosolvent or surfactant or cyclodextrin, thermodynamic from solid, read-out: Solubility of compound (A)
# Protocol: The equilibrium solubility of compound (A) was tested in a citrate buffer saline at pH6 in presence of different cyclodextrins by the shake flask method.
# [5] = compatibility with ophthalmic excipients; format: physicochemical; conditions: aqueous solutions at pH 5.5
# Text: In the further series of tests, the compatibility of the compound (A) with other typical ophthalmic excipients was investigated.
# [6] = octanol/water partition coefficient log P, pH-metric method (OECD draft guideline 122); format: physicochemical; conditions: titrated pH 1.9 to 10.9, 1.3 to 1.9 mM, various octanol/water ratios
# Text: The octanol/water partition coefficient log P of the compounds of the invention can be determined by accepted standard methods known to the person skilled in the art, such as OECD (1995), Test No. 107: Partition Coefficient (n-octanol/water): Shake Flask Method, OECD Guidelines for the Testing of Chemicals, Section 1: Physical-Chemical properties, OECD Publishing. doi: 10.1787/9789264069626-en.
# The log P value may be determined according to the draft OECD guideline OECD (2000), OECD Draft guideline for the Testing of Chemicals: 122 Partition Coefficient (n-Octanol/Water): pH-Metric Method for Ionisable Substances. For Example, log P of compound (A) was investigated using OECD (2000) OECD Draft guideline for the Testing of Chemicals: 122. The sample was titrated in two triple titrations from pH 1.9 to pH 10.9 at concentrations of 1.3 to 1.9 mM in various ratios of octanol/water.
# [7] = system: retinal ganglion cell (RGC) apoptosis; test: rat glaucoma model (chronic ophthalmic hypertension), RGC apoptosis; format: in vivo, male Dark Aguti rat; conditions: low doses, intravitreal; compared to vehicle; 3 and 6 weeks after OHT induction
# Protocol: In a male Dark Aguti rat model, glaucoma is produced by injection of hypertonic saline into episcleral veins of one eye to induce increased ophthalmic pressure (chronic ophthalmic hypertension), while the opposite eye serves as a control. In treatment groups, various doses of compound (A) of the instant invention are injected intravitreally (in […] volume) at the time of glaucoma induction and in some groups the administration continues for following 7 days to see whether such extended treatment results in increased efficacy.
# The extent of retinal ganglion cell (RGC) apoptosis at 3 weeks and 6 weeks after chronic ophthalmic hypertension (OHT) induction is assessed in each animal by dynamic confocal scanning laser ophthalmoscopy and fluorescent-labeled Annexin V.
# Animals are sacrificed after 3 and 6 weeks and their eyes are enucleated and fixed in 4% para-formaldehyde overnight. Afterwards, retinas are separated for assessing apoptosis related changes, for example visualized with FITC Annexin V kit (BD Biosciences, Franklin Laker (USA).
# Candida albicans = test: preservation of ophthalmic formulation against Candida albicans; format: cell-based
# Text: (§1) For testing of the long term preservation of the ophthalmic formulations with metal-containing preservatives, the pharmaceutical compositions VI of example 4 was modified by adding thiomersal in a concentration of 0.01% by weight in the aqueous formulation.
# Pseudomonas aeruginosa = test: preservation of ophthalmic formulation against Pseudomonas aeruginosa; format: cell-based
# Text: as §1
# Staphylococcus aureus = test: preservation of ophthalmic formulation against Staphylococcus aureus; format: cell-based
# Text: as §1
# Aspergillus niger = test: preservation of ophthalmic formulation against Aspergillus niger; format: cell-based
# Text: as §1
# [8] = 0.001 to 0.01% by weight in the aqueous formulation
# [9] = composition VI with thiomersal 0.01% by weight, after 28 days
compound,measurement,setting,value
[H]/N=C(\N/C(=N/[H])NCCCCCCNC(=N)NC(=N)Nc1ccc(Cl)cc1)Nc1ccc(Cl)cc1 [chlorhexidine],sufficient microbial preservation of ophthalmic formulations,[1],not possible
"CC(C)(NC(=O)C(N)Cc1c[nH]c2ccccc12)C(=O)O (stereo not drawn) [compound (A), 2-[2-Amino-3-(1H-indol-3-yl)-propionylamino]-2-methyl-propionic acid]",solubility thermodynamic,[2]; water without cyclodextrin,11.6 mg/mL
same,solubility thermodynamic,"[2]; water with cyclodextrin (HPBCD), aqueous with cosolvent or surfactant or cyclodextrin, water containing 65 mg/ml cyclodextrin (HPBCD)",20.2 mg/mL
same,solubility thermodynamic,"[2]; water with cyclodextrin, aqueous with cosolvent or surfactant or cyclodextrin, water containing 165 mg/ml cyclodextrin",41.2 mg/mL
same,solubility,[3]; pH 4.6,~14 mg/mL
same,solubility,[3]; pH 6,~10 mg/mL
same,solubility,[3]; pH 7,~10 mg/mL
same,solubility,[3]; pH 7.2,~14 mg/mL
same,solubility (in words),[3]; at acidic conditions,higher
same,solubility (in words),[3]; at alkaline pH-values,better
same,solubility (in words),[3]; from pH 4.5 to 7,particularly low
same,solubility,"[4]; 100 mg/ml ACD (α-Cyclodextrin, Fluka)",12.7 mg/mL
same,solubility,"[4]; 110 mg/ml HPBCD (Kleptose HPB, Roquette)",27.9 mg/mL
same,solubility,"[4]; 110 mg/ml HPGCD (Cavasol W8 HP Pharma, ISP)",16.2 mg/mL
same,solubility,"[4]; 110 mg/ml MBCD (Kleptose Crysmeb, Roquette)",28.7 mg/mL
same,"compatibility with further components (F) (hypromellose, carbomer, Gellan gum, preservatives)",[5],no incompatibilities
same,logP,[6],< -1
same,RGC apoptosis,[7],strong decrease
C/C=C/C=C/C(=O)O [sorbic acid],preservation against Candida albicans,"Candida albicans; 0.3% by weight instead of thiomersal in composition VI, after 14 days",insufficient preservation
C[CH2][Hg][S]c1ccccc1C(=O)[O-].[Na+] [thiomersal],activity meeting the compendia requirements,Pseudomonas aeruginosa,sufficient activity
same,duration of preservation,Pseudomonas aeruginosa; [8],≥ 28 days
same,reduction of organism,Pseudomonas aeruginosa; [9],≥ 5 log
same,activity meeting the compendia requirements,Staphylococcus aureus,sufficient activity
same,duration of preservation,Staphylococcus aureus; [8],≥ 28 days
same,reduction of organism,Staphylococcus aureus; [9],≥ 5 log
same,activity meeting the compendia requirements,Candida albicans,sufficient activity
same,duration of preservation,Candida albicans; [8],≥ 28 days
same,reduction of organism,Candida albicans; [9],≥ 5 log
same,activity meeting the compendia requirements,Aspergillus niger,sufficient activity
same,duration of preservation,Aspergillus niger; [8],≥ 28 days
same,reduction of organism,Aspergillus niger; [9],≥ 5 log
benzalkonium chloride,sufficient microbial preservation of ophthalmic formulations,[1],not possible
cetrimide,sufficient microbial preservation of ophthalmic formulations,[1],not possible
